Source: patent US8758816B2, “Compositions comprising azelastine and methods of use thereof” (priority 2004, dated 2014)

System: patients with seasonal allergic rhinitis (SAR)
Experiment: MP 428 study: individual symptom severity scores (runny nose, itchy nose, sneezing, congestion; 0-3 scale)
Assay type: in vivo, human
Conditions: Intent-to-Treat Population
Method: A two-week, randomized, double-blind study, which evaluated the effects of the co-administration of ASTELIN® (azelastine hydrochloride (HCl)) and FLONASE® (fluticasone propionate) compared to either product alone in patients with seasonal allergic rhinitis (SAR) was conducted during the 2006 Texas mountain cedar season. After a 5-day placebo lead-in period, 151 patients with moderate-to-severe allergic rhinitis symptoms were randomized to either: (1) (49 total patients) ASTELIN® (azelastine hydrochloride (HCl)) plus placebo saline nasal spray 2 sprays per nostril, 15 minutes apart, twice daily (AM & PM); (2) (50 total patients) FLONASE® (fluticasone propionate) plus placebo saline nasal spray, 2 sprays per nostril, 15 minutes apart, once daily (AM) and two sessions of placebo saline nasal spray, 2 sprays per nostril, 15 minutes apart (PM); or (3) (52 total patients) the co-administration of ASTELIN® (azelastine hydrochloride (HCl)) 2 sprays per nostril plus FLONASE® (fluticasone propionate) 2 sprays per nostril (AM), 15 minutes apart, and ASTELIN® (azelastine hydrochloride (HCl)) 2 sprays per nostril plus placebo saline nasal spray, 15 minutes apart, (PM) for a 2-week double-blind treatment period.
The primary efficacy variable was the change from baseline in the Total Nasal Symptom Score (TNSS), which comprised sneezing, itchy nose, runny nose, and nasal congestion (individual symptoms scores were assigned a value between 0 and 3, where 0=no symptoms and 3=severe symptoms). This study was not statistically designed to assess the differences between ASTELIN® and FLONASE®.
The results of the clinical trial are summarized and presented in Appendix A hereinbelow and in FIGS. 1-6. […] FIGS. 2-5 show the mean improvement in severity score (0-3 scale) from baseline for the symptoms of runny nose, itchy nose, sneezing and congestion, respectively.

CCC(=O)O[C@]1(C(=O)SCF)[C@H](C)C[C@H]2[C@@H]3C[C@H](F)C4=CC(=O)C=C[C@]4(C)[C@@]3(F)[C@@H](O)C[C@@]21C [Fluticasone, fluticasone propionate]
Change from Baseline in AM and PM Combined Nasal Symptom Score: Congestion, LS Mean (Day 2): −0.59 | Change from Baseline in AM and PM Combined Nasal Symptom Score: Congestion, Mean (Day 2): −0.65 | Change from Baseline in AM and PM Combined Nasal Symptom Score: Congestion, Median (Day 2): −0.30 | Change from Baseline in AM and PM Combined Nasal Symptom Score: Itchy Nose, LS Mean (Day 2): −0.61 | Change from Baseline in AM and PM Combined Nasal Symptom Score: Itchy Nose, Mean (Day 2): −0.66 | Change from Baseline in AM and PM Combined Nasal Symptom Score: Itchy Nose, Median (Day 2): −0.40 | Change from Baseline in AM and PM Combined Nasal Symptom Score: Runny Nose, LS Mean (Day 2): −0.86 | Change from Baseline in AM and PM Combined Nasal Symptom Score: Runny Nose, Mean (Day 2): −0.90 | Change from Baseline in AM and PM Combined Nasal Symptom Score: Runny Nose, Median (Day 2): −1.00 | Change from Baseline in AM and PM Combined Nasal Symptom Score: Sneezing, LS Mean (Day 2): −1.06 | Change from Baseline in AM and PM Combined Nasal Symptom Score: Sneezing, Mean (Day 2): −1.03 | Change from Baseline in AM and PM Combined Nasal Symptom Score: Sneezing, Median (Day 2): −1.00 | Percent Change from Baseline in AM and PM Combined Nasal Symptom Score: Congestion, LS Mean (Day 2): −10.84% | Percent Change from Baseline in AM and PM Combined Nasal Symptom Score: Congestion, Mean (Day 2): −11.97% | Percent Change from Baseline in AM and PM Combined Nasal Symptom Score: Congestion, Median (Day 2): −5.66% | Percent Change from Baseline in AM and PM Combined Nasal Symptom Score: Itchy Nose, LS Mean (Day 2): −12.72% | Percent Change from Baseline in AM and PM Combined Nasal Symptom Score: Itchy Nose, Mean (Day 2): −14.27% | Percent Change from Baseline in AM and PM Combined Nasal Symptom Score: Itchy Nose, Median (Day 2): −8.39% | Percent Change from Baseline in AM and PM Combined Nasal Symptom Score: Runny Nose, LS Mean (Day 2): −12.11% | Percent Change from Baseline in AM and PM Combined Nasal Symptom Score: Runny Nose, Mean (Day 2): −12.95% | Percent Change from Baseline in AM and PM Combined Nasal Symptom Score: Runny Nose, Median (Day 2): −16.67% | Percent Change from Baseline in AM and PM Combined Nasal Symptom Score: Sneezing, LS Mean (Day 2): −22.64% | Percent Change from Baseline in AM and PM Combined Nasal Symptom Score: Sneezing, Mean (Day 2): −22.69% | Percent Change from Baseline in AM and PM Combined Nasal Symptom Score: Sneezing, Median (Day 2): −16.67% | Change from Baseline in AM and PM Combined Nasal Symptom Score: Congestion, LS Mean (Day 3): −0.81 | Change from Baseline in AM and PM Combined Nasal Symptom Score: Congestion, Mean (Day 3): −0.90 | Change from Baseline in AM and PM Combined Nasal Symptom Score: Congestion, Median (Day 3): −0.67 | Change from Baseline in AM and PM Combined Nasal Symptom Score: Itchy Nose, LS Mean (Day 3): −0.99 | Change from Baseline in AM and PM Combined Nasal Symptom Score: Itchy Nose, Mean (Day 3): −0.97 | Change from Baseline in AM and PM Combined Nasal Symptom Score: Itchy Nose, Median (Day 3): −0.67 | Change from Baseline in AM and PM Combined Nasal Symptom Score: Runny Nose, LS Mean (Day 3): −0.96 | Change from Baseline in AM and PM Combined Nasal Symptom Score: Runny Nose, Mean (Day 3): −1.05 | Change from Baseline in AM and PM Combined Nasal Symptom Score: Runny Nose, Median (Day 3): −0.80 | Change from Baseline in AM and PM Combined Nasal Symptom Score: Sneezing, LS Mean (Day 3): −1.29 | Change from Baseline in AM and PM Combined Nasal Symptom Score: Sneezing, Mean (Day 3): −1.21 | Change from Baseline in AM and PM Combined Nasal Symptom Score: Sneezing, Median (Day 3): −1.00 | Percent Change from Baseline in AM and PM Combined Nasal Symptom Score: Congestion, LS Mean (Day 3): −15.34% | Percent Change from Baseline in AM and PM Combined Nasal Symptom Score: Congestion, Mean (Day 3): −16.63% | Percent Change from Baseline in AM and PM Combined Nasal Symptom Score: Congestion, Median (Day 3): −11.76% | Percent Change from Baseline in AM and PM Combined Nasal Symptom Score: Itchy Nose, LS Mean (Day 3): −22.88% | Percent Change from Baseline in AM and PM Combined Nasal Symptom Score: Itchy Nose, Mean (Day 3): −22.41% | Percent Change from Baseline in AM and PM Combined Nasal Symptom Score: Itchy Nose, Median (Day 3): −15.32% | Percent Change from Baseline in AM and PM Combined Nasal Symptom Score: Runny Nose, LS Mean (Day 3): −17.15% | Percent Change from Baseline in AM and PM Combined Nasal Symptom Score: Runny Nose, Mean (Day 3): −18.81% | Percent Change from Baseline in AM and PM Combined Nasal Symptom Score: Runny Nose, Median (Day 3): −13.79% | Percent Change from Baseline in AM and PM Combined Nasal Symptom Score: Sneezing, LS Mean (Day 3): −29.62% | Percent Change from Baseline in AM and PM Combined Nasal Symptom Score: Sneezing, Mean (Day 3): −28.44% | Percent Change from Baseline in AM and PM Combined Nasal Symptom Score: Sneezing, Median (Day 3): −30.09% | Change from Baseline in AM and PM Combined Nasal Symptom Score: Congestion, LS Mean (Day 4): −1.00 | Change from Baseline in AM and PM Combined Nasal Symptom Score: Congestion, Mean (Day 4): −1.06 | Change from Baseline in AM and PM Combined Nasal Symptom Score: Congestion, Median (Day 4): −1.00 | Change from Baseline in AM and PM Combined Nasal Symptom Score: Itchy Nose, LS Mean (Day 4): −0.98 | Change from Baseline in AM and PM Combined Nasal Symptom Score: Itchy Nose, Mean (Day 4): −0.97 | Change from Baseline in AM and PM Combined Nasal Symptom Score: Itchy Nose, Median (Day 4): −0.90 | Change from Baseline in AM and PM Combined Nasal Symptom Score: Runny Nose, LS Mean (Day 4): −1.12 | Change from Baseline in AM and PM Combined Nasal Symptom Score: Runny Nose, Mean (Day 4): −1.17 | Change from Baseline in AM and PM Combined Nasal Symptom Score: Runny Nose, Median (Day 4): −1.15 | Change from Baseline in AM and PM Combined Nasal Symptom Score: Sneezing, LS Mean (Day 4): −1.42 | Change from Baseline in AM and PM Combined Nasal Symptom Score: Sneezing, Mean (Day 4): −1.33 | Change from Baseline in AM and PM Combined Nasal Symptom Score: Sneezing, Median (Day 4): −1.10 | Percent Change from Baseline in AM and PM Combined Nasal Symptom Score: Congestion, LS Mean (Day 4): −18.75% | Percent Change from Baseline in AM and PM Combined Nasal Symptom Score: Congestion, Mean (Day 4): −19.51% | Percent Change from Baseline in AM and PM Combined Nasal Symptom Score: Congestion, Median (Day 4): −16.67% | Percent Change from Baseline in AM and PM Combined Nasal Symptom Score: Itchy Nose, LS Mean (Day 4): −20.59% | Percent Change from Baseline in AM and PM Combined Nasal Symptom Score: Itchy Nose, Mean (Day 4): −20.31% | Percent Change from Baseline in AM and PM Combined Nasal Symptom Score: Itchy Nose, Median (Day 4): −16.67% | Percent Change from Baseline in AM and PM Combined Nasal Symptom Score: Runny Nose, LS Mean (Day 4): −17.17% | Percent Change from Baseline in AM and PM Combined Nasal Symptom Score: Runny Nose, Mean (Day 4): −18.21% | Percent Change from Baseline in AM and PM Combined Nasal Symptom Score: Runny Nose, Median (Day 4): −22.33% | Percent Change from Baseline in AM and PM Combined Nasal Symptom Score: Sneezing, LS Mean (Day 4): −31.80% | Percent Change from Baseline in AM and PM Combined Nasal Symptom Score: Sneezing, Mean (Day 4): −30.67% | Percent Change from Baseline in AM and PM Combined Nasal Symptom Score: Sneezing, Median (Day 4): −27.36% | Change from Baseline in AM and PM Combined Nasal Symptom Score: Congestion, LS Mean (Day 5): −1.00 | Change from Baseline in AM and PM Combined Nasal Symptom Score: Congestion, Mean (Day 5): −1.06 | Change from Baseline in AM and PM Combined Nasal Symptom Score: Congestion, Median (Day 5): −0.83 | Change from Baseline in AM and PM Combined Nasal Symptom Score: Itchy Nose, LS Mean (Day 5): −1.16 | Change from Baseline in AM and PM Combined Nasal Symptom Score: Itchy Nose, Mean (Day 5): −1.15 | Change from Baseline in AM and PM Combined Nasal Symptom Score: Itchy Nose, Median (Day 5): −1.00 | Change from Baseline in AM and PM Combined Nasal Symptom Score: Runny Nose, LS Mean (Day 5): −1.42 | Change from Baseline in AM and PM Combined Nasal Symptom Score: Runny Nose, Mean (Day 5): −1.43 | Change from Baseline in AM and PM Combined Nasal Symptom Score: Runny Nose, Median (Day 5): −1.05 | Change from Baseline in AM and PM Combined Nasal Symptom Score: Sneezing, LS Mean (Day 5): −1.61 | Change from Baseline in AM and PM Combined Nasal Symptom Score: Sneezing, Mean (Day 5): −1.52 | Change from Baseline in AM and PM Combined Nasal Symptom Score: Sneezing, Median (Day 5): −1.33
